Test results published in patent publication US8741884B2, “Compounds for the treatment of hepatitis C” (priority 2010, dated 2014).

Tested on: HCV pseudoparticles (genotype 1a HCV E1 and E2 envelope, H77C isolate)
Assay: microbe, parasite or virus in culture
Assay type: cell-based
Settings: Hepatitis C virus, Huh-7, 48 h, class symbol; HCV pseudoparticles genotype 1a (H77C), Huh7 cells, luciferase 2 days after infection, average of duplicates

**Q.** For `O=C(NCC1CCCN1)c1ccc2cc1OCCCCCCOc1ccc(cc1)CNc1nc(nc(OCC(F)(F)F)n1)N2` (stereo not shown) [Example 1503], which EC50 is on record?
**A.** 0.1 to 100 nM

**Q.** Which EC50 does the source give for `CC(C)(C)OC(=O)N1CCC(CNC(=O)c2ccc3cc2OCCCCCCCCOc2ccc(cc2)CNc2nc(nc(OCC(F)(F)F)n2)N3)C1` (stereo not shown) [Example 1105] here?
**A.** 0.1 to 100 nM

**Q.** With `CC(C)(C)OC(=O)N1CCCC1CNC(=O)c1ccc2cc1OCCCCCCOc1ccc(cc1)CNc1nc(nc(OCC(F)(F)F)n1)N2` (stereo not shown) [Example 1306] as the compound, how does the EC50 read?
**A.** 0.1 to 100 nM

**Q.** `COC(=O)CCNC(=O)c1ccc2cc1OCCCCCCCCOc1ccc(cc1)CNc1nc(nc(OCC(F)(F)F)n1)N2` [Example 1017] was tested. Which EC50 did it give?
**A.** 100 to 1000 nM

**Q.** For `CC(C)(C)OC(=O)N1CCC(CNC(=O)c2ccc3cc2OCCCCCCOc2ccc(cc2)CNc2nc(nc(OCC(F)(F)F)n2)N3)(C(=O)O)CC1` [Example 1557], which EC50 is on record?
**A.** 100 to 1000 nM

**Q.** For `CN(C)CC(C)(C)CNC(=O)c1ccc2cc1OCCCCCCOc1ccccc1CNc1nc(nc(OCC(F)(F)F)n1)N2` [Example 1806], which EC50 is on record?
**A.** 100 to 1000 nM

**Q.** With `O=C(NCCC[C@H](NC(=O)c1ccc2cc1OCCCCCCOc1ccc(cc1)CNc1nc(nc(OCC(F)(F)F)n1)N2)C(=O)O)OCc1ccccc1` [Example 1413] as the compound, how does the EC50 read?
**A.** 0.1 to 100 nM

**Q.** `COC(=O)CCNC(=O)c1ccc2cc1OCCCCCCOc1ccc(cc1)CNc1nc(nc(OCC(F)(F)F)n1)N2` [Example 1303] was tested. Which EC50 did it give?
**A.** 100 to 1000 nM

**Q.** `CC(C)(C)OC(=O)N[C@@H](CCNC(=O)c1ccc2cc1OCCCCCCOc1ccc(cc1)CNc1nc(nc(OCC(F)(F)F)n1)N2)C(=O)O` [Example 1411] was tested. Which EC50 did it give?
**A.** 0.1 to 100 nM

**Q.** `O=C(NCC1(CN2CCCC2)CC1)c1ccc2cc1OCCCNCCCCCCCCNc1nc(nc(OCC(F)(F)F)n1)N2` [Example 5002] was tested. Which EC50 did it give?
**A.** 0.1 to 100 nM

**Q.** `N=C(N)NCCC[C@@H](NC(=O)c1ccc2cc1OCCOCCOCCOc1ccc(cc1)CNc1nc(nc(OCC(F)(F)F)n1)N2)C(=O)O` [Example 1603] was tested. Which EC50 did it give?
**A.** 0.1 to 100 nM

**Q.** `COC(=O)c1ccc2cc1OCCCCCCOc1cccc(c1)CNc1nc(nc(OCC(F)(F)F)n1)N2` [Example 1803] was tested. Which EC50 did it give?
**A.** 1000 to 50000 nM

**Q.** `NC(=O)C(Cc1ccccc1)NC(=O)c1ccc2cc1OCCCCCCOc1ccc(cc1)CNc1nc(nc(OCC(F)(F)F)n1)N2` (stereo not shown) [Example 1319] was tested. Which EC50 did it give?
**A.** 0.1 to 100 nM

**Q.** `O=C1COCC(=O)NCc2cccc(c2)Nc2nc(nc(OCC(F)(F)F)n2)NCCN1` [Example 1015] was tested. Which EC50 did it give?
**A.** 1000 to 50000 nM

**Q.** With `COC(=O)C(NC(=O)c1ccc2cc1OCCCCCCOc1ccc(cc1)CNc1nc(nc(OCC(F)(F)F)n1)N2)C1CCCN(C(=O)OC(C)(C)C)C1` (stereo not shown) [Example 1304] as the compound, how does the EC50 read?
**A.** 0.1 to 100 nM

**Q.** With `N=C(N)NC[C@H](NC(=O)c1ccc2cc1OCCCCCCOc1ccc(cc1)CNc1nc(nc(OCC(F)(F)F)n1)N2)C(=O)O` [Example 1403] as the compound, how does the EC50 read?
**A.** 0.1 to 100 nM

Same assay, conditions: Hepatitis C virus, Huh-7, 48 h, numeric value; HCV pseudoparticles genotype 1a (H77C), Huh7 cells, luciferase 2 days after infection, average of duplicates

**Q.** `CC(C)(C)OC(=O)N1CCC(CNC(=O)c2ccc3cc2OCCCCCCCCOc2ccc(cc2)CNc2nc(nc(OCC(F)(F)F)n2)N3)C1` (stereo not shown) [Example 1105] was tested. Which EC50 did it give?
**A.** 49.1 nM

**Q.** With `O=C1COCC(=O)NCc2cccc(c2)Nc2nc(nc(OCC(F)(F)F)n2)NCCN1` [Example 1015] as the compound, how does the EC50 read?
**A.** 3060 nM

Same assay, conditions: read-out: EC50

**Q.** With `O=C(O)c1ccc2cc1OCCCCOC[C@H](c1ccccc1)Nc1nc(nc(OCC(F)(F)F)n1)N2` [Example 1004] as the compound, how does the EC50 read?
**A.** 1000 to 50000 nM
